ChEMBL document CHEMBL6153084, “The development of α, β-unsaturated lactam-based andrographolide derivatives as anti-gastric cancer agents with the ability of inhibiting the ERK/c-Fos/Jun pathway” (Eur J Med Chem, 2025)
The source made the active and inactive calls. The calls are words filed in the database; no cut-off is given here.

Legend:
[1] = tested on: PC-3; test: Antiproliferative activity against human PC-3 cells assessed as inhibition of cell growth incubated for 24 to 72 hrs by MTT assay; format: functional, cell-based; details: time 24-72 hrs
[2] = tested on: MGC-803; test: Antiproliferative activity against human MGC-803 cells assessed as inhibition of cell growth incubated for 48 hrs by MTT assay; format: functional, cell-based; details: MGC-803, 48 h
[3] = tested on: MGC-803; test: Antiproliferative activity against human MGC-803 cells assessed as inhibition of cell growth incubated for 72 hrs by MTT assay; format: functional, cell-based; details: MGC-803, 72 h
[4] = tested on: MGC-803; test: Antiproliferative activity against human MGC-803 cells assessed as inhibition of cell growth upto 2.5 uM by MTT assay; format: functional, cell-based; details: time 24-72 hrs
[5] = tested on: MGC-803; test: Inhibition of cell migration in human MGC-803 cells incubated for 24 hrs by microscopic analysis; format: functional, cell-based; details: dose <= 1.0 µM
[6] = Potency index, ratio of andrographolide IC50 to test compound IC50 for antiproliferative activity against human MGC-803 cells assessed as inhibition of cell growth incubated for 24 to 72 hrs by MTT assay; format: functional; details: time 24-72 hrs
[7] = tested on: MGC-803; test: Induction of apoptosis in human MGC-803 cells assessed as late apoptotic cells at 2 uM incubated for 48 hrs by Annexin V-FITC/PI staining based flow cytometry analysis (reference value: 0.98%); format: functional
[8] = tested on: MGC-803; test: Induction of apoptosis in human MGC-803 cells assessed as necrotic cells at 2 uM incubated for 48 hrs by Annexin V-FITC/PI staining based flow cytometry analysis (reference value: 0.83%); format: functional
[9] = tested on: MGC-803; test: Induction of apoptosis in human MGC-803 cells assessed as late apoptotic cells at 4 uM incubated for 48 hrs by Annexin V-FITC/PI staining based flow cytometry analysis (reference value: 0.98%); format: functional
[10] = tested on: MGC-803; test: Induction of ROS accumulation in human MGC-803 cells assessed as increase in fluorescence intensity at 1 to 4 uM incubated for 48 min by DCFH-DA and PI staining based microscopic analysis; format: functional, cell-based; details: dose 1-4 µM
[11] = tested on: MGC-803; test: Induction of apoptosis in human MGC-803 cells assessed as downregulation of […] expression at 1 to 4 uM incubated for 24 hrs by Western blot analysis; format: functional, cell-based; details: dose 1-4 µM
[12] = tested on: MGC-803; test: Downregulation of c-FOS level in human MGC-803 cells at 4 uM incubated for 24 hrs by immunoblotting analysis; format: functional, cell-based
[13] = tested on: MGC-803; test: Inhibition of ERK phosphorylation in human MGC-803 cells at 4 uM measured after 24 hrs by Western blot analysis; format: cell-based
[14] = tested on: MGC-803; test: Downregulation of ACAT2 mRNA level in human MGC-803 cells at 4 uM incubated for 24 hrs by RT-qPCR analysis; format: functional, cell-based
[15] = tested on: MGC-803; test: Downregulation of FABP3 mRNA level in human MGC-803 cells at 4 uM incubated for 24 hrs by RT-qPCR analysis; format: functional, cell-based
[16] = tested on: MGC-803; test: Antitumor activity against human MGC-803 cells xenografted in BALB/c mouse assessed as inhibition of tumor growth at 25 mg/kg, IG administered for 14 days; format: functional; details: MGC-803, po, 336 h, time 14 day, read-out: TGI

C=C1CC[C@@H]2[C@](C)(CO)[C@H](O)CC[C@@]2(C)[C@@H]1/C=C/C1=CC(=C/c2ccc(C)cc2)/NC1=O
Activity [1]: inactive | IC50 [2]: 3.56 µM | IC50 [3]: 2.87 µM | Activity [4]: Time-dependent-effect | inhibition [5]: Dose-dependent-effect | Ratio IC50 [6]: ~14 | Activity [7]: 41.5% | Activity [8]: 12.9% | Activity [9]: 47.5% | Activity [10]: Active | Activity [11]: Active | Activity [12]: Active | inhibition [13]: Active | Activity [14]: Active | Activity [15]: Active | inhibition in vivo at 25 mg/kg [16]: 20%
